The values that follow come from patent US20080039522A1, “Composition Containing a Complex Comprising a Metal Ion and a Carboxylate Ligand Having Anti-Inflammatory Activity” (Medical Therapies Limited, priority 2004, published 2008).

The test system of series [1] is Sprague-Dawley rats. Briefly: Small intestine ulceration after oral administration. The conditions noted are these: rats fed, oral gavage, 24 h after dosing; IndoH 10 mg kg^−1, complexes 11 mg kg^−1; mean ± sem; listed as Sample F. In kind it is in vivo, rat. As for the experimental part: The rats were orally administered (non-anaesthetized) the Test Samples or Test Compositions via oral gavage. The controls were dosed with CMC (2%) solution.
(§1) The total volume of the MCT or carbopol paste compositions administered per dose in the assessment of gastrointestinal ulceration was no more than 0.5 g.

Series [2] relates to Sprague-Dawley rats. Kind of series: Observation of the site of the subcutaneous injection. In kind it is in vivo, rat. Conditions: subcutaneous, in MCT oil, all doses. As to the method: (§2) In Vivo Anti-inflammatory Activity and Gastric Toxicity. Groups of four rats were used for all studies. All doses were calculated as equivalent concentrations of Indo. […] For subcutaneous and intramuscular administration, rats were injected with 125-200 μL volumes of the test compositions (IndoH or [Cu2(Indo)4(OH2)2] in MCT oil). The control cohort was injected with equivalent volumes of neat MCT. Subcutaneous injections were made in the lower dorsal surface and intramuscular injections were made in the right hind thigh muscle. Inflammation was induced 1 h after dosing by injection of the formulation by an injection of carrageenan (0.1 mL, 1% w/v in isotonic saline) into the plantar region of the hind paw.

Series [3] has as its system Sprague-Dawley rats. Briefly: Acute gastric ulceration after oral administration. In kind it is in vivo, rat. Conditions: rat, in vivo. As for the experimental part: Gastrointestinal Ulceration: To assess gastric damage, rats (n=4 per group) were fasted overnight with free access to water prior to the oral administration (non-anaesthetized) of the Test Samples or Test Compositions via oral gavage. The controls were dosed with CMC (2%) solution. Three hours after dosing, the rats were euthanised and the stomach was excised and opened by incision along the greater curvature. The stomach was rinsed, submerged in 10% formaldehyde for 1 h and examined to determine the extent of macroscopic gastric damage.
as §1
In order to illustrate the adverse effects of decomposition of the copper complex in the formulation, the gastric toxicity of IndoH, Cu-acetate, a physical mixture of Cu-acetate and IndoH and [Cu2(Indo)4(DMF)2] were tested at equivalent doses of Indo (10 mg kg^−1) and/or Cu in the MCT paste or a 2% (w/v) aqueous solution of carboxymethylcellulose (CMC). The MCT paste formulations were prepared as described in Example 3 but using IndoH, Cu-acetate, a physical mixture of Cu-acetate and IndoH, or [Cu2(Indo)4(DMF)2] instead of [Cu2(Indo)4(OH2)2]. The gastric toxicity was tested as described above. The results of these experiments are illustrated in FIG. 3.
In further experiments designed to test the toxicity of solutions of the Cu complex, the [Cu2(Indo)4(DMF)2] complex was dissolved in DMF and gastric toxicities were assessed. […] Similar results would be expected using other complexes, including [Cu2(Indo)4(OH2)2], in a non-colloidal solution.

Series [4] deals with Sprague-Dawley rats. Briefly: Anti-inflammatory activity (rat paw oedema) of topical creams. In kind it is in vivo. The conditions noted are these: topical emulsifying cream. As for the experimental part: All rat experiments were performed as outlined in Example 7, except for the following changes. In Vivo Anti-inflammatory Activity and Gastric Toxicity. For topical administration, rats were treated with test compositions containing [Cu2(Indo)4(OH2)2] (“CuIndo”), [Zn(Indo)2(OH2)2] (“ZnIndo”), IndoH, or an equivalent Indo and Cu dose of a physical mixture of [Cu2(OAc)4(OH2)2] and IndoH thoroughly mixed in an emulsifying cream (see below). An amount of 0.2 g of the composition was applied to the right hind paw of each animal and gently massaged in for 1 minute at three-hourly intervals. Inflammation was induced at the final topical application with an injection of carrageenan (0.1 mL, 1% w/v in isotonic saline) into the plantar region of the hind paw. The composition for topical application was a composition comprising 0.5-2% w/w of Indo delivered as [Cu2(Indo)4(OH2)2] (“CuIndo”), [Zn(Indo)2(OH2)2] (“ZuIndo”), IndoH or an equivalent Indo and Cu dose of a physical mixture of [Cu2(OAc)4(OH2)2] and IndoH in an emulsifying cream, the emulsifying cream consisting of: […]

In series [5] the test system is Sprague-Dawley rats. Briefly: Inhibition of carrageenan-induced paw edema, oral administration. Conditions: oral, IndoH 10 mg kg^−1, complex 11 mg kg^−1, mean(sem). In kind it is in vivo, rat. As to the method: Inhibition of Carrageenan-Induced Paw Edema: Rats were orally administered (non-anaesthetized) the Test Samples or Test Compositions via oral gavage. The control cohort was dosed solely with CMC (2%) solution. […] Exp. Ther. 1965, 150, 165-171). The thickness of the paw was measured at the ventral dorsal footpad using digital calipers prior to dosing and at 3 and 5 h after carrageenan injection. The change in the measured parameter (ΔP) for thickness of paw (Δmm) at n=3- and 5-hours after carrageenan injection is given by: ΔP=Pt=n-Pt=0 (I) The percent inhibition (% inhibition) at 3- or 5-hours in the measured parameter (P) due to the treatment is given as the difference between the % increase in the value of P in the control group and the treatment group at n=3- or 5-hours, with the % increase in the value of P given by: […]

Series [6] relates to Sprague-Dawley rats. Kind of series: Anti-inflammatory activity (rat paw oedema) after subcutaneous or intramuscular injection. In kind it is in vivo. As for the experimental part:
as §2
Paw volume was measured prior to dosing and at 3 h after carrageenan injection by immersing the left hind paw (to the lateral malleus) into a vessel filled with water as described in Example 5. Immediately after paw volume measurements, 24 h-fasted animals were euthanised and the stomach was excised and opened by incision along the greater curvature.

Take `COc1ccc2c(c1)c(CC(=O)[O-])c(C)n2C(=O)c1ccc(Cl)cc1.COc1ccc2c(c1)c(CC(=O)[O-])c(C)n2C(=O)c1ccc(Cl)cc1.COc1ccc2c(c1)c(CC(=O)[O-])c(C)n2C(=O)c1ccc(Cl)cc1.COc1ccc2c(c1)c(CC(=O)[O-])c(C)n2C(=O)c1ccc(Cl)cc1.O.O.[Cu+2].[Cu+2]` [[Cu2(Indo)4(OH2)2]]: in series [1], the “Small intestine ulceration (mm^2)” value amounted to 61.0±34.5 mm^2. Also, the “adverse effect at the site of the injection” value in series [2] is on record as “None of the rats exhibited soreness, swelling, redness or any other adverse effect”. Further, the “gastric toxicity as % of that of an equivalent dose of IndoH” value in series [3] is on record as “approximately 8%”. Moreover, in series [3], the “reduction of gastric toxicity versus free IndoH” value is 50%. Further, the “Efficacy (% inhib)” value in series [4] (conc. 0.5 % equiv of Indo) is on record as 12.2 % inhib; in series [4] (conc. 0.75 % equiv of Indo), 73 % inhib; in series [4] (conc. 1 % equiv of Indo), 52 % inhib; in series [4] (conc. 2 % equiv of Indo), 55.2 % inhib. The “percent inhibition in rat hind-paw diameter change, 3-hr” value in series [5] (3 h post carrageenan) is listed as 30(4)%. In series [5] (5 h post carrageenan), the “percent inhibition in rat hind-paw diameter change, 5-hr” value was 31(3)%. Further, the Percent inhibition in series [6] (intramuscular, fasting rats, 2 mg/kg equivalent dose of Indo) worked out at 0%; in series [6] (intramuscular, fasting rats, 10 mg/kg equivalent dose of Indo), 47.7%; in series [6] (intramuscular, fasting rats, 20 mg/kg equivalent dose of Indo), 49.7%; in series [6] (subcutaneous, 1 mg/kg of Indo, fasting) it was 4%; in series [6] (subcutaneous, 2 mg/kg of Indo, fasting), 6%; in series [6] (subcutaneous, 5 mg/kg of Indo, fasting), 24.9%. The Percent inhibition is reported as 47% in series [6] (subcutaneous, 7.5 mg/kg of Indo, non-fasting); 35.8% in series [6] (subcutaneous, 10 mg/kg of Indo, fasting); 33.9% in series [6] (subcutaneous, 20 mg/kg of Indo, fasting); 31.6% in series [6] (subcutaneous, 20 mg/kg of Indo, non-fasting). The “dose at which the anti-inflammatory effect plateaus” value in series [6] (subcutaneous, in MCT oil) is on record as 5-7.5 mg kg^−1 of Indo.
